In PubChem BioAssay (NCI):
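How tested: cells in 96-well plates exposed to compound for 48 hours at five concentrations. TGI: total growth inhibition.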

Assays:
Assay in all cases: NCI tumour cell line growth inhibition, 48 h
UACC-257 melanoma = tested on: UACC-257 melanoma
MCF7 breast = tested on: MCF7 breast
SN12C renal = tested on: SN12C renal
SF-295 CNS = tested on: SF-295 CNS
U251 CNS = tested on: U251 CNS
HCT-15 colon = tested on: HCT-15 colon
NCI/ADR-RES ovarian = tested on: NCI/ADR-RES ovarian
786-0 renal = tested on: 786-0 renal
OVCAR-5 ovarian = tested on: OVCAR-5 ovarian
T-47D breast = tested on: T-47D breast
PC-3 prostate = tested on: PC-3 prostate
TK-10 renal = tested on: TK-10 renal
SK-OV-3 ovarian = tested on: SK-OV-3 ovarian
COLO 205 colon = tested on: COLO 205 colon
OVCAR-4 ovarian = tested on: OVCAR-4 ovarian
LOX IMVI melanoma = tested on: LOX IMVI melanoma
SK-MEL-2 melanoma = tested on: SK-MEL-2 melanoma
DU-145 prostate = tested on: DU-145 prostate
HOP-62 NSCLC = tested on: HOP-62 NSCLC
MALME-3M melanoma = tested on: MALME-3M melanoma
MOLT-4 leukemia = tested on: MOLT-4 leukemia
ACHN renal = tested on: ACHN renal
OVCAR-3 ovarian = tested on: OVCAR-3 ovarian
HS 578T breast = tested on: HS 578T breast
EKVX NSCLC = tested on: EKVX NSCLC
SR leukemia = tested on: SR leukemia
SNB-19 CNS = tested on: SNB-19 CNS
HL-60(TB) leukemia = tested on: HL-60(TB) leukemia
A498 renal = tested on: A498 renal
MDA-MB-231 breast = tested on: MDA-MB-231 breast
HT29 colon = tested on: HT29 colon
OVCAR-8 ovarian = tested on: OVCAR-8 ovarian
CAKI-1 renal = tested on: CAKI-1 renal
IGROV1 ovarian = tested on: IGROV1 ovarian
NCI-H522 lung = tested on: NCI-H522 lung
SF-539 CNS = tested on: SF-539 CNS
NCI-H23 lung = tested on: NCI-H23 lung
M14 melanoma = tested on: M14 melanoma
K-562 leukemia = tested on: K-562 leukemia
CCRF-CEM leukemia = tested on: CCRF-CEM leukemia
HCT-116 colon = tested on: HCT-116 colon
UACC-62 melanoma = tested on: UACC-62 melanoma
NCI-H226 lung = tested on: NCI-H226 lung
BT-549 breast = tested on: BT-549 breast
UO-31 renal = tested on: UO-31 renal
SK-MEL-28 melanoma = tested on: SK-MEL-28 melanoma
HCC-2998 colon = tested on: HCC-2998 colon
KM12 colon = tested on: KM12 colon
SF-268 CNS = tested on: SF-268 CNS
MDA-N = tested on: MDA-N
A549 NSCLC = tested on: A549 NSCLC
HOP-92 NSCLC = tested on: HOP-92 NSCLC
SK-MEL-5 melanoma = tested on: SK-MEL-5 melanoma
RPMI-8226 leukemia = tested on: RPMI-8226 leukemia
MDA-MB-435 = tested on: MDA-MB-435
SW-620 colon = tested on: SW-620 colon
RXF 393 renal = tested on: RXF 393 renal
SNB-75 CNS = tested on: SNB-75 CNS

For `COc1ccc(-c2cc(=O)c3c(O)c(OC)c(OC)c(OC)c3o2)cc1OC`, the TGI (UACC-257 melanoma) was > 100 µM, the TGI (MCF7 breast) was > 100 µM and the TGI (SN12C renal) was > 100 µM. For the same compound, the TGI (SF-295 CNS) was > 100 µM, the TGI (U251 CNS) was > 100 µM and the TGI (HCT-15 colon) was > 100 µM. The TGI (NCI/ADR-RES ovarian) was > 100 µM, the TGI (786-0 renal) was > 100 µM and the TGI (OVCAR-5 ovarian) was > 100 µM. The TGI (T-47D breast) was > 100 µM, the TGI (PC-3 prostate) was > 100 µM and the TGI (TK-10 renal) was > 100 µM. For the same compound, the TGI (SK-OV-3 ovarian) was 81 µM, the TGI (COLO 205 colon) was > 100 µM and the TGI (OVCAR-4 ovarian) was > 100 µM. The TGI (LOX IMVI melanoma) was > 100 µM, the TGI (SK-MEL-2 melanoma) was > 100 µM and the TGI (DU-145 prostate) was > 100 µM. The TGI (HOP-62 NSCLC) was 82.9 µM, the TGI (MALME-3M melanoma) was > 100 µM and the TGI (MOLT-4 leukemia) was > 100 µM. The TGI (ACHN renal) was > 100 µM, the TGI (OVCAR-3 ovarian) was > 100 µM and the TGI (HS 578T breast) was 81.8 µM. The TGI (EKVX NSCLC) was > 100 µM, the TGI (SR leukemia) was > 100 µM and the TGI (SNB-19 CNS) was > 100 µM. For the same compound, the TGI (HL-60(TB) leukemia) was > 100 µM, the TGI (A498 renal) was > 100 µM and the TGI (MDA-MB-231 breast) was > 100 µM. For the same compound, the TGI (HT29 colon) was > 100 µM, the TGI (OVCAR-8 ovarian) was > 100 µM and the TGI (CAKI-1 renal) was > 100 µM. The TGI (IGROV1 ovarian) was > 100 µM, the TGI (NCI-H522 lung) was 43.9 µM and the TGI (SF-539 CNS) was > 100 µM. For the same compound, the TGI (NCI-H23 lung) was > 100 µM, the TGI (M14 melanoma) was > 100 µM and the TGI (K-562 leukemia) was > 100 µM. The TGI (CCRF-CEM leukemia) was > 100 µM, the TGI (HCT-116 colon) was > 100 µM and the TGI (UACC-62 melanoma) was > 100 µM. For the same compound, the TGI (NCI-H226 lung) was > 100 µM, the TGI (BT-549 breast) was > 100 µM and the TGI (UO-31 renal) was > 100 µM. For the same compound, the TGI (SK-MEL-28 melanoma) was > 100 µM, the TGI (HCC-2998 colon) was > 100 µM and the TGI (KM12 colon) was > 100 µM. For the same compound, the TGI (SF-268 CNS) was 51.6 µM, the TGI (MDA-N) was > 100 µM and the TGI (A549 NSCLC) was > 100 µM. The TGI (HOP-92 NSCLC) was 28 µM and the TGI (SK-MEL-5 melanoma) was > 100 µM.

In the case of `O=C1NC2NC3NC(=O)NC3NC2N1` (stereo not drawn), the TGI (UACC-257 melanoma) is reported as > 100 µM, the TGI (MCF7 breast) is reported as > 100 µM and the TGI (SN12C renal) is reported as > 100 µM. For the same compound, the TGI (SF-295 CNS) was > 100 µM, the TGI (U251 CNS) was > 100 µM and the TGI (NCI/ADR-RES ovarian) was > 100 µM. For the same compound, the TGI (RPMI-8226 leukemia) was > 100 µM, the TGI (786-0 renal) was > 100 µM and the TGI (OVCAR-5 ovarian) was > 100 µM. For the same compound, the TGI (PC-3 prostate) was > 100 µM, the TGI (COLO 205 colon) was > 100 µM and the TGI (MDA-MB-435) was > 100 µM. For the same compound, the TGI (SW-620 colon) was > 100 µM, the TGI (LOX IMVI melanoma) was > 100 µM and the TGI (SK-MEL-2 melanoma) was > 100 µM. The TGI (DU-145 prostate) was > 100 µM, the TGI (HOP-62 NSCLC) was > 100 µM and the TGI (MALME-3M melanoma) was > 100 µM. The TGI (MOLT-4 leukemia) was > 100 µM, the TGI (ACHN renal) was > 100 µM and the TGI (RXF 393 renal) was > 100 µM. The TGI (OVCAR-3 ovarian) was > 100 µM, the TGI (EKVX NSCLC) was > 100 µM and the TGI (SR leukemia) was > 100 µM. The TGI (SNB-19 CNS) was > 100 µM, the TGI (HL-60(TB) leukemia) was > 100 µM and the TGI (A498 renal) was > 100 µM. For the same compound, the TGI (MDA-MB-231 breast) was > 100 µM, the TGI (HT29 colon) was > 100 µM and the TGI (OVCAR-8 ovarian) was > 100 µM. The TGI (CAKI-1 renal) was > 100 µM, the TGI (IGROV1 ovarian) was > 100 µM and the TGI (NCI-H522 lung) was > 100 µM. The TGI (SF-539 CNS) was > 100 µM, the TGI (NCI-H23 lung) was > 100 µM and the TGI (M14 melanoma) was > 100 µM. For the same compound, the TGI (K-562 leukemia) was > 100 µM, the TGI (CCRF-CEM leukemia) was > 100 µM and the TGI (HCT-116 colon) was > 100 µM. The TGI (UACC-62 melanoma) was > 100 µM, the TGI (NCI-H226 lung) was > 100 µM and the TGI (BT-549 breast) was > 100 µM. The TGI (UO-31 renal) was > 100 µM, the TGI (SK-MEL-28 melanoma) was > 100 µM and the TGI (KM12 colon) was > 100 µM. For the same compound, the TGI (SNB-75 CNS) was > 100 µM, the TGI (MDA-N) was > 100 µM and the TGI (A549 NSCLC) was > 100 µM. For the same compound, the TGI (HOP-92 NSCLC) was > 100 µM and the TGI (SK-MEL-5 melanoma) was > 100 µM.
